Experiment: Determination of the surface tension (Krüss tensiometer K12, ring)
Format: physicochemical
Conditions: 20° C.
Description: [table] Further details on the method can be obtained from the publication by the European Commission Classification, Packaging and Labelling of Dangerous Substances in the European Union, Part II—Test Methods, Annex V—Methods for the Determination of Physico-Chemical Properties, Toxicity and Ecotoxicity, Part A, Surface Tension (A.5), January 1997, pages 51-57, and from the OECD Guideline for the Testing of Chemicals, Section 1, Physical-Chemical Properties, Method 115, pages 1-7, adopted: 27, July 95, the contents of which in this respect expressly belong to the disclosure content of the present application.

Surface tension (1.0020 g/l (4.101E−03 mol/l) in deionised water) | Surface tension (2.0015 g/l (8.192E−03 mol/l) in deionised water) | Surface tension (3.0010 g/l (1.228E−02 mol/l) in deionised water) | SMILES | Surface tension (0.5015 g/l (1.527E−03 mol/l) in deionised water) | Surface tension (1.0000 g/l (3.046E−03 mol/l) in deionised water) | Surface tension (2.0005 g/l (6.093E−03 mol/l) in deionised water)
– | – | – | O=S(=O)(O)CCCCCCCCCCOC(F)(F)F [Example 5, Sodium 10-trifluoromethoxydecane-1-sulfonate] | 59.95 mN/m | 52.55 mN/m | 42.61 mN/m
66.13 mN/m | 57.70 mN/m | 52.61 mN/m | CCCCCCCCCCS(=O)(=O)[O-].[Na+] [Decane-sulfonic acid Na salt, sodium decanesulfonate] | – | – | –

Source: US20080149878A1, “Fluorosurfactants” (priority 2005, published 2008)
